Usually IC50 stands for the midpoint of a concentration-inhibition curve.

In patent US9790169B2, “IDO inhibitors” (BRISTOL-MYERS SQUIBB COMPANY, priority 2015, dated 2017) one finds IC50 data, which are given here for 31 compounds.

For the assay, the target named is human IDO1 (Homo sapiens, UniProt P14902). Description: Assessment of human IDO-1 inhibitory activity in HEK cells (human IDO1/HEK293 cells, kynurenine read-out with Ehrlich reagent, absorbance 490 nm). The following applies: HEK Human IDO-1 cellular assay. The format is cell-based. The arrangement: expressed in transfected cells. On the procedure:
Exemplary compounds were tested for inhibition of IDO activity.
Assessment of Human IDO-1 Inhibitory Activity in HEK Cells
HEK293 cells were transfected with a pCDNA-based mammalian expression vector harboring human IDO1 cDNA (NM 002164.2) by electroporation. They were cultured in medium (DMEM with 10% FBS) containing 1 mg/ml G418 for two weeks. Clones of HEK293 cells that stably expressed human IDO1 protein were selected and expanded for IDO inhibition assay.
The human IDO1/HEK293 cells were seeded at 10,000 cells per 50 μL per well with RPMI/phenol red free media contains 10% FBS in a 384-well black wall clear bottom tissue culture plate (Matrix Technologies LLC) 100 nL of certain concentration of compound was then added to each well using ECHO liquid handling systems. The cells were incubated for 20 hours in 37° C. incubator with 5% CO2.
The compound treatments were stopped by adding trichloroacetic acid (Sigma-Aldrich) to a final concentration at 0.2%. The cell plate was further incubated at 50° C. for 30 minute. The equal volume supernatant (20 μL) and 0.2% (w/v) Ehrlich reagent (4-dimethylaminobenzaldehyde, Sigma-Aldrich) in glacial acetic acid were mixed in a new clear bottom 384-well plate. This plate was then incubated at room temperature for 30 minute. The absorbance at 490 nm was measured on Envision plate reader.
Compound IC50 values were calculated using the counts of 500 nM of a reference standard treatment as one hundred percent inhibition, and counts of no compound but DMSO treatment as zero percent inhibition.

Chain of human IDO1 (P14902 whole entry): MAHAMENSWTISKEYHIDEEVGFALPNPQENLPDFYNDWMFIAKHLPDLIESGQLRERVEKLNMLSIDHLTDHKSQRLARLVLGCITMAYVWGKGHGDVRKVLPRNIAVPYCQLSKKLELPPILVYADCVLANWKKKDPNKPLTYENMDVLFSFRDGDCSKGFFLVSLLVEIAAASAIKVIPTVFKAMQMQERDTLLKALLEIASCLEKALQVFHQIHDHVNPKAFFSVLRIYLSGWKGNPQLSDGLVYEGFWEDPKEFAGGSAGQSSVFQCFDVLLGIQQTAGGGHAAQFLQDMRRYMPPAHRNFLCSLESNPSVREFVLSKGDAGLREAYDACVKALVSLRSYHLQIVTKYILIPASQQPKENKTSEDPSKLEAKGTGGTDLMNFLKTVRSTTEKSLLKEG

With `Cc1ccc(CC(=O)Nc2cc(C(CC(=O)O)C3CC3)ccc2N(CC(C)C)C2CCOCC2)cc1` (racemic) [Example 1208, (+/−)-3-Cyclopropyl-3-(4-(isobutyl(tetrahydro-2H-pyran-4-yl)amino)-3-(2-(p-tolyl)acetamido)phenyl)propanoic acid], the concentration for half-maximal inhibition (IC50) was less than 50 nM. On to `COCC(CC(=O)OC)c1ccc(N(CC(C)C)C2CCCCC2)c(NC(=O)Nc2ccc(C)cc2)c1` (racemic) [Example 1223, (+/−)-Methyl 3-(4-(cyclohexyl(isobutyl)amino)-3-(3-(p-tolyl)ureido)phenyl)-4-methoxybutanoate], for which the IC50 was greater than 50 nM. `COCC(CC(=O)O)c1ccc(N(CC(C)C)C2CCCCC2)c(NC(=O)Cc2ccccc2F)c1` (racemic) [Example 1230, (+/−)-3-(4-(Cyclohexyl(isobutyl)amino)-3-(2-(2-fluorophenyl)acetamido)phenyl)-4-methoxybutanoic acid]: the concentration for half-maximal inhibition (IC50) is less than 50 nM.

As to `CCC(CC(=O)O)c1cc(F)c(N(CC(C)C)CC(C)C)c(NC(=O)Cc2ccc(C)cc2)c1` (single isomer, unassigned) [980-1], the 50% inhibitory concentration (IC50) is less than 5 nM. For `CCC(CC(=O)O)c1cc(F)c(N(CC(C)C)CC(C)C)c(NC(=O)Nc2ccc(Cl)cc2F)c1` (single isomer, unassigned) [981-1] the value was less than 5 nM; for `CCC(CC(=O)O)c1cc(F)c(N(CC(C)C)CC(C)C)c(NC(=O)Nc2ccc(C)c(F)c2)c1` (single isomer, unassigned) [982-1], less than 5 nM; for `COCC(CC(=O)O)c1ccc(N(CC(C)C)C2CCCCC2)c(NC(=O)Nc2ccc(Cl)cc2F)c1` (single isomer, unassigned) [985-1], less than 5 nM. As for `COCC(CC(=O)O)c1ccc(N(CC(C)C)C2CCCCC2)c(NC(=O)Nc2cc(C)on2)c1` (single isomer, unassigned) [987-1], the half-inhibitory concentration (IC50) is less than 50 nM.

Take `COCC(CC(=O)O)c1ccc(N(CC(C)C)C2CCCCC2)c(NC(=O)Nc2ccc(C)cc2)c1` (single isomer, unassigned) [989-1]: the 50% inhibitory concentration (IC50) is less than 5 nM.

Take `COCC(CC(=O)O)c1ccc(N(CC(C)C)C2CCCCC2)c(NC(=O)Nc2cncnc2)c1` (single isomer, unassigned) [991-1]: the IC50 was less than 50 nM.

In the case of `COCC(CC(=O)O)c1ccc(N(CC(C)C)C2CCCCC2)c(NC(=O)Nc2cncnc2)c1` (single isomer, unassigned) [991-2], the half-maximal inhibitory concentration (IC50) was less than 5 nM.

Turning to `COCC(CC(=O)O)c1ccc(N(CC(C)C)CC(C)C)c(NC(=O)Nc2ccc(C)cc2)c1` (single isomer, unassigned) [993-1], the IC50 is less than 50 nM. For `COCC(CC(=O)O)c1ccc(N(CC(C)C)CC(C)C)c(NC(=O)Nc2ccc(Cl)cc2F)c1` (single isomer, unassigned) [995-1] the value was less than 5 nM; for `COCC(CC(=O)O)c1ccc(N(CC(C)C)CC(C)C)c(NC(=O)Nc2cncnc2)c1` (single isomer, unassigned) [997-1], greater than 50 nM. Take `COCC(CC(=O)O)c1ccc(N(CC(C)C)CC(C)C)c(NC(=O)Nc2cncnc2)c1` (single isomer, unassigned) [997-2]: the IC50 was less than 50 nM. Take `COCC(CC(=O)O)c1ccc(N(CC(C)C)CC(C)C)c(NC(=O)Nc2cc(C)on2)c1` (single isomer, unassigned) [999-1]: the IC50 was less than 50 nM.

With `Cc1ccc(CC(=O)Nc2cc(C(CC(=O)O)C(C)C)ccc2N(C)C(C)(C)C)cc1` (single isomer, unassigned) [1007-1], the IC50 is greater than 50 nM. For `CC(C)C(CC(=O)O)c1ccc(N(C)C(C)(C)C)c(Nc2nc3ccccc3o2)c1` (single isomer, unassigned) [1008-1], the 50% inhibitory concentration (IC50) was greater than 50 nM.

Consider `COCC(CC(=O)O)c1ccc(N(CC(C)C)C2CCCCC2)c(NC(=O)Nc2ccccc2F)c1` (single isomer, unassigned) [1125 E2], for which the IC50 is less than 5 nM. Next, `Cc1ccc(NC(=O)Nc2cc(C(CC(=O)O)C3CC3)ccc2N(CC(C)C)C2CCOCC2)cc1` (single isomer, unassigned) [1202 E2]: less than 5 nM; `CC[C@@H](CC(=O)O)c1ccc(N(CC(C)C)CC(C)C)c(Nc2ccc3nc(C)sc3c2)c1` (single isomer, unassigned) [Example 9]: greater than 50 nM; `CC[C@H](CC(=O)O)c1ccc(N(CC(C)C)CC(C)C)c(Nc2ccc3nc(C)sc3c2)c1` (single isomer, unassigned) [Example 10]: greater than 50 nM. For `CC[C@@H](CC(=O)O)c1ccc(N(CC(C)C)CC(C)C)c(Nc2ccc(Cl)cc2)c1` (single isomer, unassigned) [Example 11] the value was less than 50 nM; for `CCN(c1ccc(C(CC(=O)O)C2CC2)cc1Nc1ccc(C#N)cc1)C1CCOCC1` (single isomer, unassigned) [Example 37, 3-(3-((4-cyanophenyl)amino)-4-(ethyl(tetrahydro-2H-pyran-4-yl)amino)phenyl)-3-cyclopropylpropanoic acid], less than 5 nM. For the compound `CCOc1ncc(Nc2cc(C(C)CC(=O)O)ccc2N(CC(C)(C)O)C2CCCCC2)cn1` (single isomer, unassigned) [Example 50, 3-(4-(cyclohexyl(2-hydroxy-2-methylpropyl)amino)-3-((2-ethoxypyrimidin-5-yl)amino)phenyl)butanoic acid], the IC50 is greater than 50 nM. For `CC(CC(=O)O)c1ccc(N(CC(C)(C)O)C2CCCCC2)c(Nc2ccc(Cl)c(OCC(F)(F)F)c2)c1` (single isomer, unassigned) [Example 51, 3-(3-((4-chloro-3-(2,2,2-trifluoroethoxy)phenyl)amino)-4-(cyclohexyl(2-hydroxy-2-methylpropyl)amino)phenyl)butanoic acid] the value was greater than 50 nM; for `CCOc1ccc(Nc2cc(C(C)CC(=O)O)ccc2N(CC(C)(C)O)C2CCCCC2)c(F)c1` (single isomer, unassigned) [Example 52, 3-(4-(cyclohexyl(2-hydroxy-2-methylpropyl)amino)-3-((4-ethoxy-2-fluorophenyl)amino)phenyl)butanoic acid], greater than 50 nM. Consider `CC(CC(=O)O)c1ccc(N(CC(C)(C)O)C2CCCCC2)c(Nc2ccc3c(c2)OC(F)(F)O3)c1` (single isomer, unassigned) [Example 53, 3-(4-(cyclohexyl(2-hydroxy-2-methylpropyl)amino)-3-((2,2-difluorobenzo[d][1,3]dioxol-5-yl)amino)phenyl)butanoic acid], for which the concentration for half-maximal inhibition (IC50) was less than 5 nM.

Turning to `CCOc1ncc(Nc2cc(C(C)CC(=O)O)ccc2N(CC(C)(C)O)C2CCCCC2)cn1` (single isomer, unassigned) [Example 54, 3-(4-(cyclohexyl(2-hydroxy-2-methylpropyl)amino)-3-((2-ethoxypyrimidin-5-yl)amino)phenyl)butanoic acid], the IC50 was less than 50 nM. Turning to `CCOc1ccc(Nc2cc(C(C)CC(=O)O)ccc2N(CC(C)(C)O)C2CCCCC2)c(F)c1` (single isomer, unassigned) [Example 56, 3-(4-(cyclohexyl(2-hydroxy-2-methylpropyl)amino)-3-((4-ethoxy-2-fluorophenyl)amino)phenyl)butanoic acid], the IC50 is less than 50 nM.

For `CCOc1ncc(Nc2cc(C(CC)CC(=O)O)ccc2N(CC)C2CCCOC2)cn1` (single isomer, unassigned) [Example 69, 3-(3-((2-ethoxypyrimidin-5-yl)amino)-4-(ethyl(tetrahydro-2H-pyran-3-yl)amino)phenyl)pentanoic acid], the half-inhibitory concentration (IC50) was less than 5 nM.
